Assay results from BindingDB's records for doi:10.3109/14756366.2011.651463 (Medical University of Bialystok, 2013).
pKi: −log10 of the molar value.

Tests used:
[1] = molecular target: Serine protease 1 (Homo sapiens, UniProt P07477); assay: Tyrpsin Amidolytic Assay; settings: pH 7.5
Description: (§1) Buffer and 0.1 mL of enzyme solution was added to 0.2 mL of examined compounddissolved in 0.15 M NaCl (as control 0.15 M NaCl). The buffer and the enzyme solution included: Borane buffer − 0.5 mL (pH 7.5), enzyme: trypsin (0.4units/mL), synthetic substrate: Bzl-L-Arg-pNA HCl (0.2 mL, 8 mM). The mixture was incubated for 3 min at 37°C. After 20 min of incubation, the reaction was stopped by adding 0.1 ml of 50% acetic acid, and the absorbance of the released p-nitroaniline was measured at 405 nm (Spekol 1300, AnalyticJena).

[2] = molecular target: Plasminogen (Homo sapiens, UniProt P00747); assay: Plasmin Amidolytic Assay; settings: pH 7.4
Description: as §1, with “Tris” for “Borane”, “7.4),” for “7.5),”, “plasmin (0.4 units/mL),” for “trypsin (0.4units/mL),”, “S-2251” for “Bzl-L-Arg-pNA HCl”, “3” for “8”

[3] = molecular target: Prothrombin (Homo sapiens, UniProt P00734); assay: Thrombin Amidolytic Assay; settings: pH 8.4
Description: as §1, with “Tris” for “Borane”, “8.4),” for “7.5),”, “thrombin (1 units/mL),” for “trypsin (0.4units/mL),”, “S-2238” for “Bzl-L-Arg-pNA HCl”, “0.75” for “8”

[4] = molecular target: Urokinase-type plasminogen activator (Homo sapiens, UniProt P00749); assay: Urokinase Amidolytic Assay; settings: pH 8.8
Description: as §1, with “Tris” for “Borane”, “0.6” for “0.5”, “8.8),” for “7.5),”, “urokinase (50 units/mL),” for “trypsin (0.4units/mL),”, “S-2444 (0.1” for “Bzl-L-Arg-pNA HCl (0.2”, “3” for “8”

Plasminogen, sequence (P00747 97-580 limits assumed): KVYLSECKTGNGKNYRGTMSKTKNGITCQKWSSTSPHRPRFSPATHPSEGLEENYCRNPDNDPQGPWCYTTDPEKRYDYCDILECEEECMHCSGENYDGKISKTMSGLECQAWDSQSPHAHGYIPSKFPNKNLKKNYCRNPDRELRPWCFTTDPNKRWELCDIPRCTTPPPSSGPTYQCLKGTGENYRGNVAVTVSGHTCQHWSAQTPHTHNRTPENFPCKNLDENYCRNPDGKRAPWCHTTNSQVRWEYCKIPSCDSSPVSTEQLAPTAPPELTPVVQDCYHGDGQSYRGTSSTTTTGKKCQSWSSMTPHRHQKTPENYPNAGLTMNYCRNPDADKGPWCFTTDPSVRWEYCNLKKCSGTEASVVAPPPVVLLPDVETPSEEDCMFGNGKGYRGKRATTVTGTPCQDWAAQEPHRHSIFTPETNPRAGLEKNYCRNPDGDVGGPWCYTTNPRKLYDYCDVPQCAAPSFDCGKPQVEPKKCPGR
Plasminogen, sequence (P00747 581-810 limits assumed): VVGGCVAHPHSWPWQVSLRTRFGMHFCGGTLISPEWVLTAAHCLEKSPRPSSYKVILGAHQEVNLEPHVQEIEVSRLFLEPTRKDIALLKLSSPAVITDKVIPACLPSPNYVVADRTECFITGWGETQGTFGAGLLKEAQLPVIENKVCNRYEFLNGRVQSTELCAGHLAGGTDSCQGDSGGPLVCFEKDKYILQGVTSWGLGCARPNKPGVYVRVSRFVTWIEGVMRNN
Serine protease 1, sequence (P07477 whole entry): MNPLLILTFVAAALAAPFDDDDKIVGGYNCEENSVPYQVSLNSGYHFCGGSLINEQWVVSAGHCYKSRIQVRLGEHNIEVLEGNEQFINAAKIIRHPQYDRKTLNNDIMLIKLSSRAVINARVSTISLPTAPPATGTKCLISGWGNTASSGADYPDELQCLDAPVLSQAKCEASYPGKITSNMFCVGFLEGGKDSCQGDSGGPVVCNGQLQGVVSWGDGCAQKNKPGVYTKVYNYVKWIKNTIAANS

| SMILES | pKi [1] | pKi [2] | pKi [3] | pKi [4] |
| --- | --- | --- | --- | --- |
| N=C(N)NCCC[C@H](NC(=O)[C@H](CCC1CCCCC1)NC(=O)[C@H](N)CO)C(=O)O [H-D-Ser-homoCha-Arg-OH (6)] | 4.57 | 4.95 |  |  |
| N=C(N)NCCC[C@@H](NC(=O)C1(NC(=O)[C@H](N)CO)CCCCC1)C(=O)O [H-D-Ser-1ACH-Arg-OH (8)] |  |  | 4.82 | 3.40 |
| N=C(N)NCCC[C@@H](NC(=O)[C@@H](CC1CCCCC1)NC(=O)[C@H](N)CO)C(=O)O [H-D-Ser-Cha-Arg-OH (5)] |  |  | 4.70 | 3.61 |
| N=C(N)NCCC[C@@H](NC(=O)[C@@H](CCC1CCCCC1)NC(=O)[C@H](N)CO)C(=O)O [H-D-Ser-homoCha-Arg-OH (6)] |  |  | 4.74 | 3.35 |
| N=C(N)NCCC[C@H](NC(=O)C1(NC(=O)[C@H](N)CO)CCCCC1)C(=O)O [H-D-Ser-1ACH-Arg-OH (8)] | 4.58 | 5.11 |  |  |

The next lines start with the values.

| pKi [1] | pKi [2] | pKi [3] | pKi [4] | SMILES |
| --- | --- | --- | --- | --- |
| 4.55 | 5.10 |  |  | C[C@@](Cc1ccccc1)(NC(=O)[C@H](N)CO)C(=O)N[C@@H](CCCNC(=N)N)C(=O)O [H-D-Ser-αMePhe-Arg-OH (7)] |
|  |  | 4.79 | 3.25 | N=C(N)NCCC[C@@H](NC(=O)[C@@H](CCc1ccccc1)NC(=O)[C@H](N)CO)C(=O)O [H-D-Ser-homoPhe-Arg-OH (3)] |
|  |  | 4.92 | 3.26 | N=C(N)NCCC[C@@H](NC(=O)[C@@H](Cc1ccccc1)NC(=O)[C@H](N)CO)C(=O)O [H-D-Ser-Phe-Arg-OH (2)] |
| 4.62 | 5.23 |  |  | N=C(N)NCCC[C@H](NC(=O)[C@H](CCc1ccccc1)NC(=O)[C@H](N)CO)C(=O)O [H-D-Ser-homoPhe-Arg-OH (3)] |
| 4.64 | 5.06 |  |  | N=C(N)NCCC[C@H](NC(=O)[C@H](Cc1ccccc1)NC(=O)[C@H](N)CO)C(=O)O [H-D-Ser-Phe-Arg-OH (2)] |
| 4.51 | 5.05 |  |  | N=C(N)NCCC[C@H](NC(=O)[C@H](CC1CCCCC1)NC(=O)[C@H](N)CO)C(=O)O [H-D-Ser-Cha-Arg-OH (5)] |
